Values of other authors in patent publication US20100317522A1, “Adjuvants for Agrochemical Applications” (COGNIS IP […], priority 2007, published 2010).

Conditions: rat, oral (WHO)

For `O=C(O)CNCP(=O)(O)O` [Glyphosate, N-(phosphonomethyl)glycine], the LD50 is given as 4320 mg/kg.
